Patent publication US20220062218A1, “COMPOSITIONS AND METHODS FOR TREATING DIABETES” (ENZYCHEM LIFESCIENCES, priority 2019, published 2022)
“Also recorded” adds a separate entry of the source.

Assays:
GLUT2 = assay: Plasma membrane GLUT2 expression in high glucose-treated INS-1 cells, western blotting of membrane fractions; format: cell-based, rat; details: pre-treated with 100 pg/mL of PLAG for 1 h, then 30 mM HG for indicated times
Procedure: To investigate the effect of PLAG on GLUT2 plasma membrane localization, membrane proteins were fractionated and analyzed by western blotting. INS-1 cells were pre-treated with 100 pg/mL of PLAG for lh, and then treated with 30 mM of HG for indicating times.
For membrane protein fractionation, we performed using the MemPER™ Plus Kit (Thermo Scientific, Waltham, Mass., USA) following the manufacturer's instructions. Proteins were separated on 12% sodium dodecyl sulfate-polyacrylamide gels and transferred to polyvinylidene difluoride membranes (EMD Millipore, Darmstadt, Germany) The membranes were blocked and incubated with primary antibodies to GLUT2 (bs-0351r, Bioss, Woburn, Mass., USA) and N+-K+ ATPase (#3010S, Cell Signaling Technology, Danvers, Mass., USA). After three washes in PBST, membranes were incubated with HRP-conjugated secondary antibodies (Enzo Life Sciences, Farmingdale, N.Y., USA) for 1 h at room temperature. Protein bands were detected using ECL reagent (Thermo Scientific) and then visualized on films.

INS-1 cells [1] = assay: High glucose (HG)-induced intracellular ROS generation in INS-1 cells, flow cytometry with DCFH-DA; format: cell-based, rat; details: pre-treated with 50 or 100 μg/mL of PLAG for 1 h, then 30 mM HG for 48 h
Procedure: Intracellular ROS generation also analyzed by flow cytometry using DCFH-DA dye. ROS generation was determined by analyzing changes in fluorescence intensity. INS-1 cells were pre-treated with 50 or 100 μg/mL of PLAG for 1 h, and then treated with 30 mM of HG for 48h. […] PLAG promotes GLUT2 endocytosis in HG-treated INS-1 cells (FIG. 10)
(§1) INS-1 rat insulinoma pancreas beta cells were cultured in RPMI-1640 medium (Welgene, Gyeongsangbuk-do, Republic of Korea) containing 10% fetal bovine serum (Tissue Culture Biologicals, Long Beach, Calif., USA), 50 μM β-mercaptoethanol, 100 units/mL penicillin, and 100 μg/mL streptomycin (Antibiotic-Antimycotic Solution, Welgene). The cells were grown in a humidified atmosphere with 5% CO2 at 37° C. Chemicals and reagents
(§2) Cells were collected by trypsinization and washed with ice-cold PBS. For cell apoptosis analyses, INS-1 cells were incubated with annexin V (BD Biosciences, Franklin Lakes, N.J., USA) for 10 min at room temperature, and stained with 7-AAD (BD Biosciences). For intracellular reactive oxygen species (ROS) analyses, cells were incubated with 2 μM of DCFH-DA (2′,7′-dichlorodihydrofluorescein diacetate, Invitrogen, Carlsbad, Calif., USA) for 30 min at 37° C. The analysis was performed using a BD FACS Verse flow cytometer (BD Biosciences).

[2] = tested on: Streptozotocin (STZ)-induced diabetes model; assay: Streptozotocin (STZ)-induced diabetes model in mice: blood glucose, serum insulin, body weight, pancreas histopathology; format: in vivo
Procedure: In order to confirm the efficacy of 1-palmitoyl-2-linoleoyl-3- acetyl-racglycerol (EC-18 or PLAG) in the treatment of diabetes disease, Streptozotocin (STZ)-induced diabetes model were used in the experiments.
Mice were divided into four groups (control group, STZ-only treatment group, PLAG-co-treatment group, and PLAG-post-treatment group). After a 16-h fast, the three treated groups except the control group were injected intraperitoneally with STZ (200 mg/kg BW) prepared fresh in citrate buffer, wherein BW means body weight. STZ-only treatment mice received no additional treatment.
On the same day, PLAG-co-treatment group mice began treatment with PLAG (250 mg/kg, p.o.) once daily for 3 consecutive days. The PLAG-post-treatment group received PLAG (250 mg/kg, p.o.) for 2 consecutive days beginning 1 day after STZ injection. As the PLAG, 1-palmitoyl-2-linoleoyl-3-acetyl-rac-glycerol represented by Formula 2 was used.
Blood was collected via the retro-orbital plexus, and blood glucose levels were monitored during the experiment. Blood glucose was measured using the Accu-Chek glucometer (Roche, Seoul, Republic of Korea). FIG. 1A is a chart measuring the blood glucose of the control group and the experimental groups on the first day.
All mice were sacrificed on day 4, last day of experiment (day 4), serum insulin was measured (FIG. 1B). Tissues of the pancreatic tissue of the control group and the experimental group were collected and fixed in 10% formalin for further analysis. During the experiment, the weight change of the control group and the experimental groups was measured (FIG. 1C).
Pancreas tissues were fixed in 10% formalin, embedded in paraffin, and sectioned at a 4 μm thickness. For immunohistochemistry, sections were deparaffinized and […] using xylene and a graded ethanol series Staining was performed using the Real EnVision Detection System Peroxidase-DAB kit (Dako, Glostrup, Denmark) following the manufacturer's instructions, and then observed under a light microscope (Olympus, Tokyo, Japan) (FIG. 1D, 400 magnification).

INS-1 cells [3] = assay: STZ-induced cell apoptosis in INS-1 cells, flow cytometry with annexin-V and 7-AAD; format: cell-based, rat; details: STZ-treated cells
Procedure: The effect of PLAG on STZ-induced cell apoptosis was analyzed using flow cytometry using annexin-V and 7-AAD dye (FIGS. 2A and 2B). Cells were collected by trypsinization and washed with PBS. For cell apoptosis analyses, INS-1 cells were incubated with annexin V (BD Biosciences, Franklin Lakes, N.J., USA) for 10 min at room temperature, and stained with 7-AAD (BD Biosciences). Analysis was performed using a BD FACSVerse flow cytometer (BD Biosciences). The annexin-V and 7-AAD dyes are dyes that label apoptosis, one kind of cell death.
After treatment with PLAG and PLH(1-palmitoyl-2-linoleoyl-3-hydroxyl-rac-glycerol), apoptosis, intracellular ROS generation and glucose uptake were analyzed by flow cytometry (FIG. 7-B to 7-E). In addition, expression of GLUT2 in membrane fractions was analyzed by Western blotting (FIG.7-F). Data are presented as mean ±SD. ***P<0.001 vs. control, #P<0.05, ##P<0.005 vs. STZ. N.S.: No significance.
as §1, §2

INS-1 cells [4] = assay: High glucose (HG)-induced cell apoptosis in INS-1 cells, flow cytometry; format: cell-based, rat; details: pre-treated with 50 or 100 μg/mL of PLAG for 1 h, then 30 mM HG for 48 h
Procedure: Effect of PLAG on pancreatic beta cell protection was investigated after HG-treatment. HG-induced cell apoptosis was analyzed using flow cytometry. INS-1 cells were pre-treated with 50 or 100 μg/mL of PLAG for lh, and then treated with 30 mM of HG for 48h. When INS-1 cells were maintained in a high glucose conditions, there was a significant increase in cell apoptosis compared to control cells.
as §1
PLAG was obtained from Enzychem Lifesciences (Seoul, Republic of Korea). D-glucose was purchased from Sigma-Aldrich (St. Louis, Mo., USA). PLAG was dissolved in ethanol and the final working concentration was 0.1% (v/v). D-glucose was dissolved in cell culture medium.
Cells were collected by trypsinization and washed with ice-cold PBS. For cell apoptosis analyses, INS-1 cells were incubated with annexin V (BD Biosciences, Franklin Lakes, N.J., USA) for 10 min at room temperature, and stained with 7-AAD (BD Biosciences). […]

In the case of `CCCCC/C=C\C/C=C\CCCCCCCC(=O)OC(COC(C)=O)COC(=O)CCCCCCCCCCCCCCC` (racemic) [PLAG, 1-palmitoyl-2-linoleoyl-3-acetyl-rac-glycerol], the “GLUT2 expression in plasma membrane (time course)” value (GLUT2) is reported as “gradually decreased until 15 min, then recovered and returned to control levels at 60 min; also recorded: gradually decreased until 15min and then recovered and returned to control levels at 60 min”, the “HG-induced intracellular ROS generation” value (INS-1 cells [1]) is reported as “dose-dependently decreased” and the “serum insulin (insulin secretion)” value ([2]; day 4, STZ-only group compared with control and PLAG groups (250 mg/kg p.o.)) is reported as “Insulin secretion of the STZ-only treatment group is significantly lower than the control and other experimental groups”. The body weight change ([2]; during the experiment, STZ-only group compared with control and PLAG groups (250 mg/kg p.o.)) was “STZ-only treatment group has a greater weight change than the control and other experimental groups”, the blood glucose ([2]; first day, PLAG-co-treatment group, 250 mg/kg p.o. once daily, STZ 200 mg/kg i.p., vs control group) was “did not have a significant increase in blood glucose” and the apoptosis (INS-1 cells [3]; 10 μg/mL of PLAG) was about 50%. For the same compound, the apoptosis (INS-1 cells [3]; 100 μg/mL PLAG) was about 30%, the “decrease of cell apoptosis, PLAG vs PLH” value (INS-1 cells [3]; Example 8) was “more effective than PLH” and the HG-induced cell apoptosis (INS-1 cells [4]) was “a decreased rate of apoptosis was observed; also recorded: dose-dependently decreased”.
